Data as given in ChEMBL document CHEMBL1201862, “PubChem BioAssay data set” (2004).
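Cells were grown in 96-well plates and exposed to each compound for 48 hours at five concentrations; endpoints were interpolated linearly between bracketing concentrations, or set to the highest concentration if not reached. GI50: concentration for 50% inhibition of growth.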 Active and inactive are the calls of the source. No stated cut-off is given here; in the data, active = GI50 up to about 1.1 µM and inactive = higher.

Assays:
Assay in all cases: growth of human tumour cells (NCI), 48 h
[1] = system: DMS-114
[2] = system: HCT-15
[3] = system: CAKI-1
[4] = system: OVCAR-4
[5] = system: A498
[6] = system: NCI-H460
[7] = system: NCI-H522
[8] = system: ACHN
[9] = system: U-251
[10] = system: NCI-H23
[11] = system: RXF 631
[12] = system: HCT-116
[13] = system: UO-31
[14] = system: UACC-257
[15] = system: OVCAR-3
[16] = system: KM-20L2
[17] = system: HCC 2998
[18] = system: LXFL 529
[19] = system: SF-539
[20] = system: DMS-273
[21] = system: OVCAR-8
[22] = system: TK-10
[23] = system: SR
[24] = system: EKVX
[25] = system: SK-MEL-5
[26] = system: M14
[27] = system: RXF 393
[28] = system: UACC-62
[29] = system: IGROV-1
[30] = system: Malme-3M
[31] = system: HOP-62
[32] = system: MOLT-4
[33] = system: HT-29
[34] = system: COLO 205
[35] = system: SF-295
[36] = system: SNB-75
[37] = system: DLD-1
[38] = system: LOX IMVI
[39] = system: 786-0
[40] = system: SNB-19
[41] = system: HL-60
[42] = system: SK-MEL-2
[43] = system: K562
[44] = system: RPMI-8226
[45] = system: SN12C
[46] = system: A549
[47] = system: CCRF-CEM
[48] = system: SW-620
[49] = system: KM12
[50] = system: M19-MEL
[51] = system: OVCAR-5
[52] = system: SK-MEL-28
[53] = system: SNB-78
[54] = system: XF498
[55] = system: SF-268
[56] = system: HOP-18
[57] = system: HOP-92
[58] = system: SK-OV-3
[59] = system: NCI-H226

For CN(C)C(=O)CC(C(=O)O)c1c[nH]c2ccccc12 (stereo not drawn), the GI50 [1] was > 100 µM (inactive), the GI50 [2] was > 100 µM and the GI50 [3] was > 100 µM (inactive). For the same molecule, the GI50 [4] was > 100 µM (inactive), the GI50 [5] was > 100 µM (inactive) and the GI50 [6] was > 100 µM (inactive). The GI50 [7] was > 100 µM (inactive), the GI50 [8] was > 100 µM (inactive) and the GI50 [9] was > 100 µM (inactive). For the same molecule, the GI50 [10] was > 100 µM (inactive), the GI50 [11] was > 100 µM (inactive) and the GI50 [12] was > 100 µM (inactive). The GI50 [13] was 0.0895 µM (active), the GI50 [14] was > 100 µM (inactive) and the GI50 [15] was > 100 µM (inactive). For the same molecule, the GI50 [16] was > 100 µM (inactive), the GI50 [17] was > 100 µM (inactive) and the GI50 [18] was > 100 µM (inactive). For the same molecule, the GI50 [19] was > 100 µM (inactive), the GI50 [20] was > 100 µM (inactive) and the GI50 [21] was > 100 µM (inactive). For the same molecule, the GI50 [22] was > 100 µM (inactive), the GI50 [23] was > 100 µM (inactive) and the GI50 [24] was > 100 µM (inactive). The GI50 [25] was > 100 µM (inactive), the GI50 [26] was > 100 µM (inactive) and the GI50 [27] was 10.2 µM (inactive). The GI50 [28] was > 100 µM (inactive), the GI50 [29] was > 100 µM (inactive) and the GI50 [30] was > 100 µM (inactive). For the same molecule, the GI50 [31] was > 100 µM (inactive), the GI50 [32] was > 100 µM (inactive) and the GI50 [33] was > 100 µM (inactive). The GI50 [34] was > 100 µM (inactive), the GI50 [35] was > 100 µM (inactive) and the GI50 [36] was > 100 µM (inactive). For the same molecule, the GI50 [37] was > 100 µM (inactive), the GI50 [38] was > 100 µM (inactive) and the GI50 [39] was > 100 µM (inactive). The GI50 [40] was > 100 µM (inactive), the GI50 [41] was > 100 µM (inactive) and the GI50 [42] was > 100 µM (inactive). The GI50 [43] was > 100 µM (inactive), the GI50 [44] was > 100 µM (inactive) and the GI50 [45] was > 100 µM (inactive). For the same molecule, the GI50 [46] was > 100 µM (inactive), the GI50 [47] was > 100 µM (inactive) and the GI50 [48] was > 100 µM (inactive). The GI50 [49] was > 100 µM (inactive) and the GI50 [50] was > 100 µM (inactive).

For CN(C)c1ccc(/C=c2\sc3nnc(Cc4ccccc4)n3c2=O)cc1, the GI50 [1] was 17 µM (inactive), the GI50 [2] was 20.2 µM and the GI50 [51] was > 10 µM (inactive). The GI50 [52] was > 10 µM (inactive), the GI50 [3] was > 10 µM (inactive) and the GI50 [4] was > 10 µM (inactive). For the same molecule, the GI50 [53] was > 10 µM (inactive), the GI50 [5] was > 10 µM (inactive) and the GI50 [54] was > 10 µM (inactive). For the same molecule, the GI50 [6] was > 10 µM (inactive), the GI50 [7] was > 10 µM (inactive) and the GI50 [8] was 75.3 µM (inactive). The GI50 [9] was > 10 µM (inactive), the GI50 [10] was > 10 µM (inactive) and the GI50 [55] was 28.3 µM (inactive). The GI50 [12] was 17.1 µM (inactive), the GI50 [13] was > 100 µM (inactive) and the GI50 [14] was > 10 µM (inactive). For the same molecule, the GI50 [15] was > 10 µM (inactive), the GI50 [16] was > 10 µM (inactive) and the GI50 [17] was > 100 µM (inactive). The GI50 [18] was > 10 µM (inactive), the GI50 [19] was > 10 µM (inactive) and the GI50 [20] was 33.7 µM (inactive). The GI50 [21] was > 10 µM (inactive), the GI50 [22] was > 10 µM (inactive) and the GI50 [23] was > 10 µM (inactive). The GI50 [56] was > 10 µM (inactive), the GI50 [24] was > 10 µM (inactive) and the GI50 [25] was > 10 µM (inactive). The GI50 [26] was > 10 µM (inactive), the GI50 [27] was 31.8 µM (inactive) and the GI50 [28] was > 10 µM (inactive). For the same molecule, the GI50 [29] was > 10 µM (inactive), the GI50 [30] was > 10 µM (inactive) and the GI50 [31] was > 10 µM (inactive). The GI50 [32] was > 10 µM (inactive), the GI50 [33] was 62.5 µM (inactive) and the GI50 [34] was > 10 µM (inactive). For the same molecule, the GI50 [35] was > 10 µM (inactive), the GI50 [36] was > 10 µM (inactive) and the GI50 [37] was > 10 µM (inactive). For the same molecule, the GI50 [57] was > 100 µM (inactive), the GI50 [38] was > 10 µM (inactive) and the GI50 [39] was > 10 µM (inactive). For the same molecule, the GI50 [40] was > 10 µM (inactive), the GI50 [41] was > 10 µM (inactive) and the GI50 [58] was > 10 µM (inactive). For the same molecule, the GI50 [42] was > 10 µM (inactive), the GI50 [43] was > 10 µM (inactive) and the GI50 [59] was > 10 µM (inactive). For the same molecule, the GI50 [44] was > 10 µM (inactive), the GI50 [45] was > 10 µM (inactive) and the GI50 [46] was 37 µM (inactive). The GI50 [47] was > 10 µM (inactive), the GI50 [48] was 13.7 µM (inactive) and the GI50 [49] was > 10 µM (inactive). The GI50 [50] was > 100 µM (inactive).
